Measured values as given in ChEMBL document CHEMBL3352227, “Synthesis, antimycobacterial and antibacterial evaluation of l-[(1R, 2S)-2-fluorocyclopropyl]fluoroquinolone derivatives containing an oxime functional moiety” (Eur J Med Chem, 2014).
≈ marks a conversion by molar mass, not a printed value.

Experiments:
Type in all cases: functional
[1] = test system: Staphylococcus epidermidis; assay: Antibacterial activity against methicillin-sensitive Staphylococcus epidermidis 12-6 after 18 to 24 hrs by standard twofold serial dilution method
Escherichia coli [2] = assay: Antibacterial activity against Escherichia coli 12-1 after 18 to 24 hrs by standard twofold serial dilution method
Escherichia coli [3] = assay: Antibacterial activity against extended-spectrum beta-lactamase producing Escherichia coli 12-3 after 18 to 24 hrs by standard twofold serial dilution method
Pseudomonas aeruginosa [4] = assay: Antibacterial activity against Pseudomonas aeruginosa 12-12 after 18 to 24 hrs by standard twofold serial dilution method
Klebsiella pneumoniae [5] = assay: Antibacterial activity against Klebsiella pneumoniae 12-4 after 18 to 24 hrs by standard twofold serial dilution method
Escherichia coli [6] = assay: Antibacterial activity against extended-spectrum beta-lactamase producing Escherichia coli 12-15 after 18 to 24 hrs by standard twofold serial dilution method
[7] = test system: Mycobacterium tuberculosis; assay: Antimycobacterial activity against Mycobacterium tuberculosis H37Rv ATCC 27294 by MABA method
Staphylococcus aureus [8] = assay: Antibacterial activity against methicillin-sensitive Staphylococcus aureus 12-4 after 18 to 24 hrs by standard twofold serial dilution method
Escherichia coli [9] = assay: Antibacterial activity against extended-spectrum beta-lactamase producing Escherichia coli 12-2 after 18 to 24 hrs by standard twofold serial dilution method
Klebsiella pneumoniae [10] = assay: Antibacterial activity against extended-spectrum beta-lactamase producin Klebsiella pneumoniae 12-7 after 18 to 24 hrs by standard twofold serial dilution method
Klebsiella pneumoniae [11] = assay: Antibacterial activity against extended-spectrum beta-lactamase producin Klebsiella pneumoniae 12-14 after 18 to 24 hrs by standard twofold serial dilution method
Klebsiella pneumoniae [12] = assay: Antibacterial activity against extended-spectrum beta-lactamase producin Klebsiella pneumoniae 12-4 after 18 to 24 hrs by standard twofold serial dilution method
Staphylococcus aureus [13] = assay: Antibacterial activity against methicillin-sensitive Staphylococcus aureus 12-2 after 18 to 24 hrs by standard twofold serial dilution method
Pseudomonas aeruginosa [14] = assay: Antibacterial activity against Pseudomonas aeruginosa 12-14 after 18 to 24 hrs by standard twofold serial dilution method
Klebsiella pneumoniae [15] = assay: Antibacterial activity against Klebsiella pneumoniae 12-1 after 18 to 24 hrs by standard twofold serial dilution method
Klebsiella pneumoniae [16] = assay: Antibacterial activity against extended-spectrum beta-lactamase producin Klebsiella pneumoniae 12-3 after 18 to 24 hrs by standard twofold serial dilution method
Streptococcus pneumoniae [17] = assay: Antibacterial activity against Streptococcus pneumoniae ATCC 49619 after 18 to 24 hrs by standard twofold serial dilution method
Staphylococcus aureus [18] = assay: Antibacterial activity against methicillin-resistant Staphylococcus aureus 12-5 after 18 to 24 hrs by standard twofold serial dilution method
[19] = test system: Staphylococcus epidermidis; assay: Antibacterial activity against methicillin-sensitive Staphylococcus epidermidis 12-1 after 18 to 24 hrs by standard twofold serial dilution method
Staphylococcus aureus [20] = assay: Antibacterial activity against methicillin-sensitive Staphylococcus aureus 12-5 after 18 to 24 hrs by standard twofold serial dilution method
[21] = test system: Staphylococcus epidermidis; assay: Antibacterial activity against methicillin-resistant Staphylococcus epidermidis 12-6 after 18 to 24 hrs by standard twofold serial dilution method
Escherichia coli [22] = assay: Antibacterial activity against Escherichia coli ATCC 25922 after 18 to 24 hrs by standard twofold serial dilution method
[23] = test system: Staphylococcus epidermidis; assay: Antibacterial activity against methicillin-sensitive Staphylococcus epidermidis 12-3 after 18 to 24 hrs by standard twofold serial dilution method
Staphylococcus aureus [24] = assay: Antibacterial activity against methicillin-sensitive Staphylococcus aureus 12-1 after 18 to 24 hrs by standard twofold serial dilution method
Escherichia coli [25] = assay: Antibacterial activity against extended-spectrum beta-lactamase producing Escherichia coli 12-14 after 18 to 24 hrs by standard twofold serial dilution method
Staphylococcus aureus [26] = assay: Antibacterial activity against methicillin-resistant Staphylococcus aureus 12-4 after 18 to 24 hrs by standard twofold serial dilution method
Klebsiella pneumoniae [27] = assay: Antibacterial activity against Klebsiella pneumoniae 12-2 after 18 to 24 hrs by standard twofold serial dilution method
Streptococcus pneumoniae [28] = assay: Antibacterial activity against Streptococcus pneumoniae 12-18 after 18 to 24 hrs by standard twofold serial dilution method
Staphylococcus aureus [29] = assay: Antibacterial activity against methicillin-resistant Staphylococcus aureus 12-2 after 18 to 24 hrs by standard twofold serial dilution method
[30] = test system: Staphylococcus epidermidis; assay: Antibacterial activity against methicillin-resistant Staphylococcus epidermidis 12-1 after 18 to 24 hrs by standard twofold serial dilution method
Staphylococcus aureus [31] = assay: Antibacterial activity against Staphylococcus aureus ATCC 25923 after 18 to 24 hrs by standard twofold serial dilution method
[32] = test system: Staphylococcus epidermidis; assay: Antibacterial activity against methicillin-sensitive Staphylococcus epidermidis 12-8 after 18 to 24 hrs by standard twofold serial dilution method

SMILES | MIC [1] [µg/mL] | MIC (Escherichia coli [2]) [µg/mL] | MIC (Escherichia coli [3]) [µg/mL] | MIC (Pseudomonas aeruginosa [4]) [µg/mL] | MIC (Klebsiella pneumoniae [5]) [µg/mL] | MIC (Escherichia coli [6]) [µg/mL] | MIC [7] [µg/mL] | MIC (Staphylococcus aureus [8]) [µg/mL] | MIC (Escherichia coli [9]) [µg/mL] | MIC (Klebsiella pneumoniae [10]) [µg/mL] | MIC (Klebsiella pneumoniae [11]) [µg/mL] | MIC (Klebsiella pneumoniae [12]) [µg/mL] | MIC (Staphylococcus aureus [13]) [µg/mL] | MIC (Pseudomonas aeruginosa [14]) [µg/mL] | MIC (Klebsiella pneumoniae [15]) [µg/mL] | MIC (Klebsiella pneumoniae [16]) [µg/mL] | MIC (Streptococcus pneumoniae [17]) [µg/mL] | MIC (Staphylococcus aureus [18]) [µg/mL] | MIC [19] [µg/mL] | MIC (Staphylococcus aureus [20]) [µg/mL] | other results
CCO/N=C1/CN(c2cc3c(cc2F)c(=O)c(C(=O)O)cn3[C@@H]2C[C@@H]2F)CC1CN (stereo partly specified) | 0.06 (≈ 0.143 µM) | 0.5 (≈ 1.19 µM) | 16 (≈ 38.1 µM) | 0.25 (≈ 0.595 µM) | 0.25 (≈ 0.595 µM) | 128 (≈ 304 µM) | 0.25 (≈ 0.595 µM) | 0.06 (≈ 0.143 µM) | 32 (≈ 76.1 µM) | 1 (≈ 2.38 µM) | 32 (≈ 76.1 µM) | 8 (≈ 19 µM) | 0.015 (≈ 0.0357 µM) | 1 (≈ 2.38 µM) | 0.25 (≈ 0.595 µM) | 16 (≈ 38.1 µM) | 0.03 (≈ 0.0714 µM) | 8 (≈ 19 µM) | 0.06 (≈ 0.143 µM) | 0.06 (≈ 0.143 µM) | MIC [21]: 1 µg/mL (≈ 2.38 µM); MIC (Escherichia coli [22]): 0.06 µg/mL (≈ 0.143 µM); MIC [23]: 0.25 µg/mL (≈ 0.595 µM); MIC (Staphylococcus aureus [24]): 0.06 µg/mL (≈ 0.143 µM); MIC (Escherichia coli [25]): 16 µg/mL (≈ 38.1 µM); MIC (Staphylococcus aureus [26]): 8 µg/mL (≈ 19 µM); MIC (Klebsiella pneumoniae [27]): 0.25 µg/mL (≈ 0.595 µM); MIC (Streptococcus pneumoniae [28]): 0.25 µg/mL (≈ 0.595 µM); MIC (Staphylococcus aureus [29]): 8 µg/mL (≈ 19 µM); MIC [30]: 1 µg/mL (≈ 2.38 µM); MIC (Staphylococcus aureus [31]): < 0.008 µg/mL; MIC [32]: 0.5 µg/mL (≈ 1.19 µM)
NCC1CN(c2cc3c(cc2F)c(=O)c(C(=O)O)cn3[C@@H]2C[C@@H]2F)C/C1=N/OCc1ccccc1 (stereo partly specified) | 0.06 (≈ 0.124 µM) | 0.06 (≈ 0.124 µM) | 32 (≈ 66.3 µM) | 1 (≈ 2.07 µM) | 0.25 (≈ 0.518 µM) | 64 (≈ 133 µM) | 0.25 (≈ 0.518 µM) | 0.06 (≈ 0.124 µM) | 64 (≈ 133 µM) | 16 (≈ 33.2 µM) | 64 (≈ 133 µM) | 16 (≈ 33.2 µM) | < 0.008 | 1 (≈ 2.07 µM) | 0.06 (≈ 0.124 µM) | 16 (≈ 33.2 µM) | 0.06 (≈ 0.124 µM) | 4 (≈ 8.29 µM) | 0.125 (≈ 0.259 µM) | 0.06 (≈ 0.124 µM) | MIC [21]: 0.5 µg/mL (≈ 1.04 µM); MIC (Escherichia coli [22]): 0.06 µg/mL (≈ 0.124 µM); MIC [23]: 0.125 µg/mL (≈ 0.259 µM); MIC (Staphylococcus aureus [24]): 0.06 µg/mL (≈ 0.124 µM); MIC (Escherichia coli [25]): 16 µg/mL (≈ 33.2 µM); MIC (Staphylococcus aureus [26]): 8 µg/mL (≈ 16.6 µM); MIC (Klebsiella pneumoniae [27]): 0.25 µg/mL (≈ 0.518 µM); MIC (Streptococcus pneumoniae [28]): 0.25 µg/mL (≈ 0.518 µM); MIC (Staphylococcus aureus [29]): 4 µg/mL (≈ 8.29 µM); MIC [30]: 1 µg/mL (≈ 2.07 µM); MIC (Staphylococcus aureus [31]): < 0.008 µg/mL; MIC [32]: 0.125 µg/mL (≈ 0.259 µM)
CO/N=C1/CN(c2cc3c(cc2F)c(=O)c(C(=O)O)cn3[C@@H]2C[C@@H]2F)[C@H]1CN | 0.25 (≈ 0.637 µM) | 1 (≈ 2.55 µM) | 16 (≈ 40.8 µM) | 0.25 (≈ 0.637 µM) | 0.015 (≈ 0.0382 µM) | > 128 | 0.5 (≈ 1.27 µM) | 0.25 (≈ 0.637 µM) | 128 (≈ 326 µM) | 0.5 (≈ 1.27 µM) | 64 (≈ 163 µM) | 8 (≈ 20.4 µM) | 0.5 (≈ 1.27 µM) | 32 (≈ 81.6 µM) | 0.125 (≈ 0.319 µM) | 64 (≈ 163 µM) | 0.125 (≈ 0.319 µM) | 32 (≈ 81.6 µM) | 0.25 (≈ 0.637 µM) | 0.5 (≈ 1.27 µM) | MIC [21]: 4 µg/mL (≈ 10.2 µM); MIC (Escherichia coli [22]): < 0.008 µg/mL; MIC [23]: 0.25 µg/mL (≈ 0.637 µM); MIC (Staphylococcus aureus [24]): 0.5 µg/mL (≈ 1.27 µM); MIC (Escherichia coli [25]): 64 µg/mL (≈ 163 µM); MIC (Staphylococcus aureus [26]): 64 µg/mL (≈ 163 µM); MIC (Klebsiella pneumoniae [27]): 0.125 µg/mL (≈ 0.319 µM); MIC (Streptococcus pneumoniae [28]): 0.5 µg/mL (≈ 1.27 µM); MIC (Staphylococcus aureus [29]): 32 µg/mL (≈ 81.6 µM); MIC [30]: 8 µg/mL (≈ 20.4 µM); MIC (Staphylococcus aureus [31]): 0.06 µg/mL (≈ 0.153 µM); MIC [32]: 0.125 µg/mL (≈ 0.319 µM)
